{"source": "paper PMC3675820", "about": "(Molecular & Cellular Proteomics : MCP, 2013)", "settings_in_all_cases": "500 μM ATPγS vs none; normal (aerated) culture lysate; competitive", "key": {"[1]": {"target": "Polyphosphate kinase, Ppk (Mycobacterium tuberculosis, UniProt P9WHV9)", "sequence (P9WHV9 whole entry)": "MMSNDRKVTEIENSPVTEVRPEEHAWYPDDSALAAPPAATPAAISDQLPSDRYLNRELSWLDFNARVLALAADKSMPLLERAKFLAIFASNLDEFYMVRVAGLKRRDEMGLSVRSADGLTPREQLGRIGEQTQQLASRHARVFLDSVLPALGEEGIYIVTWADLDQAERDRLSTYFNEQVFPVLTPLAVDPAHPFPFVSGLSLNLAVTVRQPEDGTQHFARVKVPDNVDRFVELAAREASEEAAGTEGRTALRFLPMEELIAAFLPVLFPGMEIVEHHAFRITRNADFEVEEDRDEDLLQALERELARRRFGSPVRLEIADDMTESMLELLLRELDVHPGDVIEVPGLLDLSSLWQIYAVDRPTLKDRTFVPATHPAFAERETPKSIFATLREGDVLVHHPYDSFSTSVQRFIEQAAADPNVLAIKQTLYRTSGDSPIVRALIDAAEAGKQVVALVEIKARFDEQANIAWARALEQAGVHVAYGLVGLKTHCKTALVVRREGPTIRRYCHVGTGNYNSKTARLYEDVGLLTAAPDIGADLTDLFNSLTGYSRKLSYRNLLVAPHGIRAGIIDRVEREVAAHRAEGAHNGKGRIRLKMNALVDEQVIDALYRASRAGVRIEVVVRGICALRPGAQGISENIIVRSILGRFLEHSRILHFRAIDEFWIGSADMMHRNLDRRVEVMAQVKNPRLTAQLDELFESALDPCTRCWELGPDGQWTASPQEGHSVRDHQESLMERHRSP"}, "Universal stress protein": {"target": "Universal stress protein (Mycobacterium tuberculosis, UniProt P9WLB5)", "sequence (P9WLB5 whole entry)": "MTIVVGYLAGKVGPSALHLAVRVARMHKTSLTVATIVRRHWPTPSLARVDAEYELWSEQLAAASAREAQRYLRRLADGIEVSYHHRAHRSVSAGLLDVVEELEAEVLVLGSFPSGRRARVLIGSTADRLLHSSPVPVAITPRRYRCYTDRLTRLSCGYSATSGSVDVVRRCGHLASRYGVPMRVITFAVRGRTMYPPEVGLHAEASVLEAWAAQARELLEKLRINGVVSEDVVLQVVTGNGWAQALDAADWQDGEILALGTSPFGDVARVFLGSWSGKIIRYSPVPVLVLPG"}, "Adenylate kinase, Adk": {"target": "Adenylate kinase, Adk (Mycobacterium tuberculosis, UniProt P9WKF5)", "sequence (P9WKF5 whole entry)": "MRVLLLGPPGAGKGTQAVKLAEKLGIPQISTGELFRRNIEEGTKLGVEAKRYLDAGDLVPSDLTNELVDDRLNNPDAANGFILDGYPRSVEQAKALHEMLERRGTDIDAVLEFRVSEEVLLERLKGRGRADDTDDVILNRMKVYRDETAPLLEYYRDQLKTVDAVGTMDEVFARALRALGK"}, "[2]": {"target": "ATP-dependent protease ATP-binding subunit, ClpC1 (Mycobacterium tuberculosis, UniProt P9WPC9)", "sequence (P9WPC9 whole entry)": "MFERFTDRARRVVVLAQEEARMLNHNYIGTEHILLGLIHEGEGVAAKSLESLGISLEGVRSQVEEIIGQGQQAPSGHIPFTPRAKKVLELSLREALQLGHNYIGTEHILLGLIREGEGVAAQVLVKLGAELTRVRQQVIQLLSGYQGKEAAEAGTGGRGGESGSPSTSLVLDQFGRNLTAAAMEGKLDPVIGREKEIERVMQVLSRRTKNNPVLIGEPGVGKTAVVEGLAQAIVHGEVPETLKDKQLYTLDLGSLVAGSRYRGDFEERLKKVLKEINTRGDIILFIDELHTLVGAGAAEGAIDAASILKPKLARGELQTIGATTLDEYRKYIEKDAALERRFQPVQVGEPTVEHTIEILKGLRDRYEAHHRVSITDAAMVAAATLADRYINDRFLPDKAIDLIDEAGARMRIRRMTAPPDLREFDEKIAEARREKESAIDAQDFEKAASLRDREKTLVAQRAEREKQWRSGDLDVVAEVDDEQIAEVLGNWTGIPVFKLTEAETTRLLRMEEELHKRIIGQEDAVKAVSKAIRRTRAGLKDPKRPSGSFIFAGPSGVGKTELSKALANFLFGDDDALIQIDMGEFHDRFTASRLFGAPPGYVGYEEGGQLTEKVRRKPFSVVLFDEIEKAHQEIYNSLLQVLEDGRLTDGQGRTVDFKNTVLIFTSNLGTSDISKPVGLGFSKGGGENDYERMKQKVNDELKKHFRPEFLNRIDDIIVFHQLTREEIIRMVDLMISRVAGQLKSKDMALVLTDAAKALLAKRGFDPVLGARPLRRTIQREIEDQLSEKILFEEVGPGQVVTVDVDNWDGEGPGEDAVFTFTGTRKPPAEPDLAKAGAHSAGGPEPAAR"}, "[3]": {"target": "Phosphoglycerate kinase, Pgk (Mycobacterium tuberculosis, UniProt P9WID1)", "sequence (P9WID1 whole entry)": "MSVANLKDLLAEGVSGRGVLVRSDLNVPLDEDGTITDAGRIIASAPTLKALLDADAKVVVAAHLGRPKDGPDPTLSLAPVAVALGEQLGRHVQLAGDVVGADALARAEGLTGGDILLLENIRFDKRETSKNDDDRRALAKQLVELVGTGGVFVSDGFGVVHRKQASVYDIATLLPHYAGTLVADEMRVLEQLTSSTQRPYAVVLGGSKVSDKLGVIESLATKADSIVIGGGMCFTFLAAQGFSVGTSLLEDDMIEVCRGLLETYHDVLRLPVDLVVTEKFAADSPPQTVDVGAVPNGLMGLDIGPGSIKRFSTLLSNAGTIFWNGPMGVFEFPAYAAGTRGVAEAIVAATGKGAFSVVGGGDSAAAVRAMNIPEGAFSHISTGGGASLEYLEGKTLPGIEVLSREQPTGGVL"}}}
{"molecule": "Nc1ncnc2c1ncn2[C@@H]1O[C@H](COP(=O)(O)OP(=O)(O)OP(O)(O)=S)[C@@H](O)[C@H]1O", "note": "[ATPγS, adenosine 5′-[γ-thio]triphosphate tetralithium]", "values": [{"measurement": "Fold change", "setting": "[1]", "result": 6.80, "unit": "fold"}, {"measurement": "Fold change", "setting": "Universal stress protein", "result": 4.75, "unit": "fold"}, {"measurement": "Fold change", "setting": "Adenylate kinase, Adk", "result": 2.12, "unit": "fold"}, {"measurement": "Fold change", "setting": "[2]", "result": 3.98, "unit": "fold"}, {"measurement": "Fold change", "setting": "[3]", "result": 6.56, "unit": "fold"}]}
